pIC50: −log10 of the molar value. Some results are limits rather than exact numbers.

The target of this assay is human TREX1 (Homo sapiens (Human), UniProt Q9NSU2). The experiment in a line: TREX1 Exonuclease Assay. It counts as biochemical. The procedure: For human TREX1, the nucleotide sequence of the gene construct was codon optimized for expression in the bacterial host. The sequence was incorporated into the pMAL-c5e vector (NEB) downstream of a solubility-promoting MBP (maltose binding protein) fusion partner. The fusion protein product was expressed in E. coli strain BL21 (DE3) (Millipore) and purified in a series of chromatographic steps. Initial steps were conducted using a dextrin sepharose affinity column followed by a Q-sepharose ion exchange column (both GE Healthcare). After the second column the MBP partner was removed by incubation with enterokinase (NEB). Further purification was carried out with the second application of a Q-sepharose column followed by a Superdex 75 (GE Healthcare) size exclusion column. Finally, a heparin sepharose column (GE Healthcare) was applied to remove contaminating nucleotides.
Sequence of human TREX1 (Q9NSU2 whole entry, the tested form may be a part): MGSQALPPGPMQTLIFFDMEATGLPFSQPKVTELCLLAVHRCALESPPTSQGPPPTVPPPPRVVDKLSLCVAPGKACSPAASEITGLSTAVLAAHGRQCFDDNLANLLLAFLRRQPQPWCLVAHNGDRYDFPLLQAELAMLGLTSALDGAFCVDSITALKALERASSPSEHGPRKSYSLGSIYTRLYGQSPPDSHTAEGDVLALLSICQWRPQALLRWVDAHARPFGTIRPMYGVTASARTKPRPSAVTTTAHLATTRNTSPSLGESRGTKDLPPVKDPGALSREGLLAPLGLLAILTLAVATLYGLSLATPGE
To evaluate the effect of compounds on TREX1 activity, test compounds were serially diluted (11-point, 3-fold) from 10 mM stock solutions and delivered to 384-well low-volume assay plates in 80 nL DMSO using an acoustic dispenser. Next, 4 μL of human TREX1 (0.5 nM), or murine TREX1 (1 nM), diluted in assay buffer (20 mM Tris pH 7.5, 5 mM MgCl2, 100 μg/mL BSA, 0.002% Triton X-100, 2 mM DTT), was added to the assay plate. After incubating for 30 minutes, 4 μL of labeled DNA oligonucleotide (500 nM) in assay buffer was added to initiate TREX1 exonuclease activity. The reaction was allowed to proceed for 45 minutes at room temperature prior to the addition of 4 μL of 150 mM EDTA to halt TREX1 activity.
Broadly, the pIC50 is the IC50 on a negative log10 scale, so that one unit is a factor of ten. Low values mean a high IC50, high ones a low IC50. `N[C@@H]1C[C@H]2C(=O)N([C@H](CCC(=O)O)C(=O)NCc3ccc(Cl)c(Cl)c3)CCC(CCOc3ccccc3)N2C1` (stereo partly drawn) [Example 71, (4R)-4-((8R,9aS)-8-amino-1-oxo-5-(2-phenoxyethyl)hexahydro-1H-pyrrolo[1,2-a][1,4]diazepin-2(3H)-yl)-5-((3,4-dichlorobenzyl)amino)-5-oxopentanoic Acid] showed a pIC50 of 5.00 to 6.00.
The figure for `COc1ccc(OCC2CCN([C@H](CCC(=O)O)C(=O)NCc3ccc(Cl)c(Cl)c3)C(=O)[C@@H]3C[C@@H](N)CN23)cc1` (stereo partly drawn) [Example 72, (4R)-4-((8R,9aS)-8-amino-5-((4-methoxyphenoxy)methyl)-1-oxohexahydro-1H-pyrrolo[1,2-a][1,4]diazepin-2(3H)-yl)-5-((3,4-dichlorobenzyl)amino)-5-oxopentanoic Acid] is 5.00 to 6.00.
The figure for `Cc1ccc(OCC2CCN([C@H](CCC(=O)O)C(=O)NCc3ccc(Cl)c(Cl)c3)C(=O)[C@@H]3C[C@@H](N)CN23)cc1` (some centres unmarked) [Example 73] is 5.00 to 6.00; for `N[C@@H]1C[C@H]2C(=O)N([C@H](CCC(=O)O)C(=O)NCc3ccc(Cl)c(Cl)c3)CCC(COc3ccc(Cl)cc3)N2C1` (some centres unmarked) [Example 74] it is greater than 6.00.
The figure for `N[C@@H]1C[C@H]2C(=O)N([C@H](CCC(=O)O)C(=O)NCc3ccc(Cl)c(Cl)c3)CCC(COc3ccc(F)cc3)N2C1` (some centres unmarked) [Example 75] is greater than 6.00; for `N[C@@H]1C[C@H]2C(=O)N([C@H](CCC(=O)O)C(=O)NCc3ccc(Cl)c(Cl)c3)CCC(COc3cccc(Cl)c3)N2C1` (some centres unmarked) [Example 76] it is greater than 6.00; for `N[C@@H]1C[C@H]2C(=O)N([C@H](CCC(=O)O)C(=O)NCc3ccc(Cl)c(Cl)c3)CCC(COc3ccccc3Cl)N2C1` (some centres unmarked) [Example 78] it is greater than 6.00.
Regarding `N[C@@H]1C[C@H]2C(=O)N([C@H](CCC(=O)O)C(=O)NCc3ccc(Cl)c(Cl)c3)CCC(COc3cnccn3)N2C1` (some centres unmarked) [Example 80], the pIC50 was 5.00 to 6.00.
The figure for `N[C@@H]1C[C@H]2C(=O)N([C@@H]3CCCN(S(=O)(=O)c4ccccc4)C3)CCC(CCc3ccccc3)N2C1` (some centres unmarked) [Example 84] is 4.00 to 5.00; for `N[C@@H]1C[C@H]2C(=O)N([C@@H]3CCCN(C(=O)c4ccc(Cl)c(Cl)c4)C3)CCC(CCc3ccccc3)N2C1` (some centres unmarked) [Example 85] it is 4.00 to 5.00.
The value for `N[C@@H]1C[C@H]2C(=O)N([C@H]3CCCN(S(=O)(=O)c4ccc(Cl)c(Cl)c4)C3)CCC(CCc3ccccc3)N2C1` (some centres unmarked) [Example 86] was 5.00 to 6.00; that for `N[C@@H]1C[C@H]2C(=O)N([C@H]3CCCN(C(=O)c4ccc(Cl)c(Cl)c4)C3)CCC(CCc3ccccc3)N2C1` (some centres unmarked) [Example 87] was 4.00 to 5.00.
For the molecule `CCN(CC)C(=O)COC(=O)CC[C@H](C(=O)NCc1ccc(Cl)c(Cl)c1)N1CCC(CCc2ccccc2)N2C[C@H](N)C[C@H]2C1=O` (stereo partly drawn) [Example 88, (4R)-2-(diethylamino)-2-oxoethyl 4-((8R,9aS)-8-amino-1-oxo-5-phenethylhexahydro-1H-pyrrolo[1,2-a][1,4]diazepin-2(3H)-yl)-5-((3,4-dichlorobenzyl)amino)-5-oxopentanoate], the pIC50 was greater than 6.00.
In the case of `CCOC(=O)CC[C@H](C(=O)NCc1ccc(Cl)c(Cl)c1)N1CCC(CCc2ccccc2)N2C[C@H](N)C[C@H]2C1=O` (stereo partly drawn) [Example 89, (4R)-ethyl 4-((8R,9aS)-8-amino-1-oxo-5-phenethylhexahydro-1H-pyrrolo[1,2-a][1,4]diazepin-2(3H)-yl)-5-((3,4-dichlorobenzyl)amino)-5-oxopentanoate], the pIC50 is greater than 6.00.
The figure for `CC(C)OC(=O)CC[C@H](C(=O)NCc1ccc(Cl)c(Cl)c1)N1CCC(CCc2ccccc2)N2C[C@H](N)C[C@H]2C1=O` (some centres unmarked) [Example 92] is greater than 6.00.
The value for `CCOC(=O)CC[C@H](C(=O)NCc1cc(Cl)c(Cl)cc1F)N1CCC(CCc2ccccc2)N2C[C@H](N)C[C@H]2C1=O` (some centres unmarked) [Example 94] was greater than 6.00; that for `CCOC(=O)CC[C@H](C(=O)N1CCOC[C@H]1c1ccc(Cl)c(Cl)c1)N1CCC(CCc2ccccc2)N2C[C@H](N)C[C@H]2C1=O` (some centres unmarked) [Example 96] was greater than 6.00; that for `CCOC(=O)CC[C@H](C(=O)N1CCCC[C@H]1c1ccc(Cl)c(Cl)c1)N1CCC(CCc2ccccc2)N2C[C@H](N)C[C@H]2C1=O` (some centres unmarked) [Example 97] was greater than 6.00.
The value for `CCOC(=O)CC[C@H](C(=O)N1CCC[C@H]1c1ccc(Cl)c(Cl)c1)N1CCC(CCc2ccccc2)N2C[C@H](N)C[C@H]2C1=O` (some centres unmarked) [Example 98] was greater than 6.00; that for `CCOC(=O)CC[C@H](C(=O)NCc1cc(Cl)c(Cl)cn1)N1CCC(CCc2ccccc2)N2C[C@H](N)C[C@H]2C1=O` (some centres unmarked) [Example 99] was greater than 6.00; that for `COC(=O)CC[C@H](C(=O)NCc1ccc(Cl)cn1)N1CCC(CCc2ccccc2)N2C[C@H](N)C[C@H]2C1=O` (some centres unmarked) [Example 100] was greater than 6.00.
In the case of `COC(=O)CC[C@H](C(=O)NS(=O)(=O)c1ccc(Cl)c(Cl)c1)N1CCC(CCc2ccccc2)N2C[C@H](N)C[C@H]2C1=O` (some centres unmarked) [Example 101], the pIC50 was greater than 6.00.
The value for `CCOC(=O)CC[C@H](C(=O)NCc1ccc(Cl)c(Cl)c1OC)N1CCC(CCc2ccccc2)N2C[C@H](N)C[C@H]2C1=O` (some centres unmarked) [Example 102] was greater than 6.00; that for `CCOC(=O)CC[C@H](C(=O)NCc1cc(Cl)c(Cl)cc1OC)N1CCC(CCc2ccccc2)N2C[C@H](N)C[C@H]2C1=O` (some centres unmarked) [Example 103] was greater than 6.00.
The value for `COC(=O)CC[C@H](C(=O)NCc1ccc(Cl)c(Cl)c1)N1CCC(CCc2ccccc2)N2C[C@H](N)C[C@H]2C1=O` (stereo partly drawn) [Example 104, (4R)-methyl 4-((8R,9aS)-8-amino-1-oxo-5-phenethylhexahydro-1H-pyrrolo[1,2-a][1,4]diazepin-2(3H)-yl)-5-((3,4-dichlorobenzyl)amino)-5-oxopentanoate] was greater than 6.00; that for `COc1c(CNC(=O)[C@@H](CCC(N)=O)N2CCC(CCc3ccccc3)N3C[C@H](N)C[C@H]3C2=O)ccc(Cl)c1Cl` (some centres unmarked) [Example 106] was greater than 6.00.
The figure for `NC(=O)CC[C@H](C(=O)NCc1ccc(Cl)c(Cl)c1F)N1CCC(CCc2ccccc2)N2C[C@H](N)C[C@H]2C1=O` (some centres unmarked) [Example 107] is greater than 6.00.
For `COc1c(CNC(=O)[C@@H](CCC#N)N2CCC(CCc3ccccc3)N3C[C@H](N)C[C@H]3C2=O)ccc(Cl)c1Cl` (some centres unmarked) [Example 108], the pIC50 is greater than 6.00.
The value for `N#CCC[C@H](C(=O)NCc1ccc(Cl)c(Cl)c1F)N1CCC(CCc2ccccc2)N2C[C@H](N)C[C@H]2C1=O` (some centres unmarked) [Example 109] was greater than 6.00; that for `N#CCC[C@H](C(=O)NCc1ccc(Cl)c(Cl)c1)N1CCC(COc2ccc(F)cc2)N2C[C@H](N)C[C@H]2C1=O` (some centres unmarked) [Example 110] was greater than 6.00.
Molecule `N#CCC[C@H](C(=O)NCc1ccc(Cl)c(Cl)c1)N1CCC(COc2cccc(F)c2)N2C[C@H](N)C[C@H]2C1=O` (some centres unmarked) [Example 111] showed a pIC50 greater than 6.00.
The figure for `N#CC[C@H](C(=O)NCc1ccc(Cl)c(Cl)c1)N1CCC(CCc2ccccc2)N2C[C@H](N)C[C@H]2C1=O` (some centres unmarked) [Example 112] is greater than 6.00; for `N#CC[C@H](C(=O)NCc1ccc(Cl)c(Cl)n1)N1CCC(CCc2ccccc2)N2C[C@H](N)C[C@H]2C1=O` (some centres unmarked) [Example 113] it is greater than 6.00; for `N[C@@H]1C[C@H]2C(=O)N([C@H](CCC(=O)NO)C(=O)NCc3ccc(Cl)c(Cl)c3)CCC(COc3ccc(F)cc3)N2C1` (some centres unmarked) [Example 115] it is greater than 6.00.
The value for `N[C@@H]1C[C@H]2C(=O)N([C@H](CCC(=O)NO)C(=O)NCc3ccc(Cl)c(Cl)c3)CCC(CCc3ccccc3)N2C1` (some centres unmarked) [Example 116] was greater than 6.00; that for `CONC(=O)CC[C@H](C(=O)NCc1ccc(Cl)c(Cl)c1)N1CCC(CCc2ccccc2)N2C[C@H](N)C[C@H]2C1=O` (some centres unmarked) [Example 117] was greater than 6.00.
`CC(=O)NCC[C@H](C(=O)NCc1ccc(Cl)c(Cl)c1)N1CCC(CCc2ccccc2)N2C[C@H](N)C[C@H]2C1=O` (some centres unmarked) [Example 131]: the pIC50 was greater than 6.00.
The value for `CS(=O)(=O)NCC[C@H](C(=O)NCc1ccc(Cl)c(Cl)c1)N1CCC(CCc2ccccc2)N2C[C@H](N)C[C@H]2C1=O` (some centres unmarked) [Example 132] was greater than 6.00.
The value for `N[C@@H]1C[C@H]2C(=O)N([C@H](CCNS(=O)(=O)C3CC3)C(=O)NCc3ccc(Cl)c(Cl)c3)CCC(CCc3ccccc3)N2C1` (some centres unmarked) [Example 133] was greater than 6.00.
The value for `CNC(=O)CC[C@H](C(=O)NCc1ccc(Cl)c(Cl)c1)N1CCC(CCc2ccccc2)N2C[C@H](N)C[C@H]2C1=O` (some centres unmarked) [Example 136] was greater than 6.00; that for `Cc1nnc(CC[C@H](C(=O)NCc2ccc(Cl)c(Cl)c2F)N2CCC(CCc3ccccc3)N3C[C@H](N)C[C@H]3C2=O)[nH]1` (some centres unmarked) [Example 140] was greater than 6.00.
Molecule `CC(C)Oc1c(CNC(=O)[C@@H](CCC#N)N2CCC(CCc3ccccc3)N3C[C@H](N)C[C@H]3C2=O)ccc(Cl)c1Cl` (some centres unmarked) [Example 141] gave a pIC50 greater than 6.00.
The value for `N[C@@H]1C[C@H]2C(=O)N([C@H](CCNS(=O)(=O)C(F)(F)F)C(=O)NCc3ccc(Cl)c(Cl)c3)CCC(CCc3ccccc3)N2C1` (some centres unmarked) [Example 142] was greater than 6.00; that for `CCOC(=O)N[C@@H]1C[C@H]2C(=O)N([C@H](CCC(=O)O)C(=O)NCc3ccc(Cl)c(Cl)c3)CCC(CCc3ccccc3)N2C1` (some centres unmarked) [Example 143] was 4.00 to 5.00.

Source of the values: patent US11583538B2, “Substituted pyrrolo[1,2-a]pyrazines and pyrrolo[1,2-a][1,4]diazepines as TREX1 inhibitors” (Venenum Biodesign, LLC, priority 2019, dated 2023).
